Measured values reported in patent publication US20230041738A1, “1H-PYRAZOLO[4,3-d]PYRIMIDINE COMPOUNDS AS TOLL-LIKE RECEPTOR 7 (TLR7) AGONISTS” (BRISTOL-MYERS SQUIBB COMPANY, priority 2020, published 2023).

Columns and labels:
[1] = biological target: T1, human TLR7 (Homo sapiens, UniProt Q9NYK1); assay: Human TLR7 agonist activity assay (hTLR7 reporter, HEK-Blue TLR7 cells, SEAP); format: cell-based; details: HEK-Blue TLR7 cells with SEAP reporter, 18 h treatment; average where assay performed multiple times
T1 construct: host or cells: HEK-Blue TLR7 cells (engineered human embryonic kidney cells)
T1 sequence (Q9NYK1 27-1049): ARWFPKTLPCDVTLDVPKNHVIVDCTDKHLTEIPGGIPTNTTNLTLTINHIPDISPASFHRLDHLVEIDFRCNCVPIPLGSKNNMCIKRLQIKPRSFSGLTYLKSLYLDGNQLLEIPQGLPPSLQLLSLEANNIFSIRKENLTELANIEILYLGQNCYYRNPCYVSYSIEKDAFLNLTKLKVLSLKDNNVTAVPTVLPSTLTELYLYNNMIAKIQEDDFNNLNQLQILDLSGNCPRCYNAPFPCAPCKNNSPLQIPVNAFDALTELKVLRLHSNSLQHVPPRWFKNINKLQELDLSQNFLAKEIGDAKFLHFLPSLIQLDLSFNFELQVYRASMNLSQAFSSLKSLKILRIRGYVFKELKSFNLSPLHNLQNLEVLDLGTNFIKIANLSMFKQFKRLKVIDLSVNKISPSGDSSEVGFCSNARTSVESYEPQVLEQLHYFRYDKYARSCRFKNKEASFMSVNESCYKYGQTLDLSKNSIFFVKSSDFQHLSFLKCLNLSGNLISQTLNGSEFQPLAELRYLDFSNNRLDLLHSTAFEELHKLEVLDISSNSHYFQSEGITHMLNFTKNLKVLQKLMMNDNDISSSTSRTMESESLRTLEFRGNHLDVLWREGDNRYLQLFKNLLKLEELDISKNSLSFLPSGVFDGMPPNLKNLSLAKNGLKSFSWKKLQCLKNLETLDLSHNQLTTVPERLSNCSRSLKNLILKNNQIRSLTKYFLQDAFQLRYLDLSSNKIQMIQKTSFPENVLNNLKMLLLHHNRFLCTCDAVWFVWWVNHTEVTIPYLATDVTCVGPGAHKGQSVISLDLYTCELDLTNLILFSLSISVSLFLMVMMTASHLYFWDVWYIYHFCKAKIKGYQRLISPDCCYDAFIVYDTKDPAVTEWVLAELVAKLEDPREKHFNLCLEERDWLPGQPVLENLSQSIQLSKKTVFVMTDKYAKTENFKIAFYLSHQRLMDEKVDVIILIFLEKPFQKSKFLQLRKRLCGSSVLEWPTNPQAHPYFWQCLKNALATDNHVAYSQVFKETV
Method: This procedure describes a method for assaying human TLR7 (hTLR7) agonist activity of the compounds disclosed in this specification.
HEK-Blue™ TLR7 cells were added to each well of a 384-well tissue-culture plate (15,000 cells per well) and incubated 16-18 h at 37° C., 5% CO2. Compounds (100 nl) were dispensed into wells containing the HEK-Blue™ TLR cells and the treated cells were incubated at 37° C., 5% CO2. After 18 h treatment ten microliters of freshly-prepared Quanti-Blue™ reagent (Invivogen) was added to each well, incubated for 30 min (37° C., 5% CO2) and SEAP levels measured using an Envision plate reader (OD=620 nm). The half maximal effective concentration values (EC50; compound concentration which induced a response halfway between the assay baseline and maximum) were calculated.

[2] = test system: CD69; assay: Induction of CD69 in human whole blood (hWB); format: cell-based; details: 17 hrs at 37 C, CD69 surface staining, 100% set to 1 uM resiquimod, average where performed multiple times
Method: The induction of Type I interferon (IFN) MX-1 genes and the B-cell activation marker CD69 are downstream events that occur upon activation of the TLR7 pathway. The following is a human whole blood assay that measures their induction in response to a TLR7 agonist.
Heparinized human whole blood was harvested from human subjects and treated with test TLR7 agonist compounds at 1 mM. The blood was diluted with RPMI 1640 media and Echo was used to predot 10 nL per well giving a final concentration of 1 uM (10 nL in 10 uL of blood). After mixing on a shaker for 30 sec, the plates were covered and placed in a 37° C. chamber for o/n=17 hrs. Fixing/lysis buffer was prepared (5×→1× in H2O, warm at 37° C.; Cat #BD 558049) and kept the perm buffer (on ice) for later use.
For surface markers staining (CD69): prepared surface Abs: 0.045 ul hCD14-FITC (ThermoFisher Cat #MHCD1401)+0.6 ul hCD19-ef450 (ThermoFisher Cat #48-0198-42)+1.5 ul hCD69-PE (cat #BD555531)+0.855 ul FACS buffer. Added 3 ul/well, spin1000 rpm for 1 min and mixed on shaker for 30 sec, put on ice for 30 mins. Stop stimulation after 30 min with 70 uL of prewarmed 1× fix/lysis buffer and use Feliex mate to resuspend (15 times, change tips for each plate) and incubate at 37C for 10 min.
Centrifuge at 2000 rpm for 5 min aspirate with HCS plate washer, mix on shaker for 30 sec and then wash with 70 uL in dPBS and pelleted 2× s (2000 rpm for 5 min) and 50 ul wash in FACS buffer pelleted 1×s(2000 rpm for 5 min). Mix on shaker for 30 sec. For Intracellular markers staining (MX-1): Add 50 ul of BD Perm buffer III and mix on shaker for 30 sec. Incubate on ice for 30 min (in the dark). Wash with 50 uL of FACS buffer 2× (spin @2300 rpm×5 min after perm) followed by mixing on shaker for 30 sec. Resuspended in 20 ul of FACS buffer containing MX1 antibody ( )(4812)-Alexa 647: Novus Biologicals #NBP2-43704AF647) 20 ul FACS bf+0.8 ul hlgG+0.04 ul MX-1. Spin 1000 rpm for 1 min, mix on shaker for 30se and the samples were incubated at RT in the dark for 45 min followed by washing 2× FACS buffer (spin @2300 rpm×5 min after perm). Resuspend 20 ul (35 uL total per well) of FACS buffer and cover with foil and place in 4° C. to read the following day. Plates were read on iQuePlus. The results were loaded into toolset and IC50 curves are generated in curve master. The y-axis 100% is set to 1 uM of resiquimod.

Row | SMILES | EC50 [1] | EC50 [2]
1 | CCCCNc1nc(N)nc2cnn(Cc3ccc(CN4C[C@H]5CN(CCO)C[C@H]5C4)cc3OC)c12 [Compound 139, 2-[(3aR,6aS)-5-[(4-{[5-amino-7-(butylamino)-1H-pyrazolo[4,3-d]pyrimidin-1-yl]methyl}-3-methoxy-pheny)methyl]-octahydropyrrolo[3,4-c]pyrrol-2-yl]ethan-1-ol] | 19.6 nM | 1.9 nM
2 | CCCCNc1nc(N)nc2cnn(Cc3ccc(CN4C[C@H]5C[C@@H]4CN5C)cc3OC)c12 [Compound 105, N7-butyl-1-[(2-methoxy-4-{[(1R,4R)-5-methyl-2,5-diaza-bicyclo[2.2.1]heptan-2-yl]methyl}-phenyl)methyl]-1H-pyrazolo[4,3-d]pyrimidine-5,7-diamine] | 20.7 nM | 4.2 nM
3 | COc1cc(CN2C[C@H]3C[C@@H]2CN3C)ccc1Cn1nc(C)c2nc(N)nc(NCc3cc(C)on3)c21 [Compound 128, 1-[(2-methoxy-4-{[(1R,4R)-5-methyl-2,5-diazabicyclo[2.2.1]-heptan-2-yl]methyl}phenyl)-methyl]-3-methyl-N7-[(5-methyl-1,2-oxazol-3-yl)methyl]-1H-pyra-zolo[4,3-d]pyrimidine-5,7-diamine] | 74.4 nM | 28 nM
4 | CCCCNc1nc(N)nc2cnn(Cc3ccc(C(=O)N4C[C@H]5CN(C)C[C@H]5C4)cc3OC3CC3)c12 [Compound 118, 1-({4-[(3aR,6aS)-5-methyl-octa-hydropyrrolo[3,4-c]pyrrole-2-carbonyl]-2-cyclopropoxyphenyl}-methyl)-N7-butyl-1H-pyrazolo[4,3-d]pyrimidine-5,7-diamine] | 339 nM | 51.8 nM
5 | COc1cc(CN2C[C@@H]3C[C@H]2CN3)ccc1Cn1ncc2nc(N)nc(NCC3CC(C4CC4)C3)c21 (stereo partly drawn) [Compound 112, N7-[(3-cyclopropylcyclobutyl)-methyl]-1-[(4-{[(1S,4S)-2,5-diazabicyclo[2.2.1]heptan-2-yl]methyl}-2-methoxy-phenyl)methyl]-1H-pyrazolo[4,3-d]pyrimidine-5,7-diamine] | 30.5 nM | 151 nM
6 | CCC[C@@H](CCO)Nc1nc(N)nc2cnn(Cc3cnc(CN4C[C@@H]5C[C@H]4CN5C)cc3OC)c12 [Compound 131, (3S)-3-({5-amino-1-[(4-methoxy-6-{[(1S,4S)-5-methyl-2,5-diaza-bicyclo[2.2.1]heptan-2-yl]methyl}pyridin-3-yl)methyl]-1H-pyrazolo[4,3-d]pyrimidin-7-yl}amino)hexan-1-ol] | 333 nM | 11.7 nM
7 | CCCCNc1nc(N)nc2cnn(Cc3ccc(CN4C[C@H]5CNC[C@H]5C4)cc3OC)c12 [Compound 143, 1-[(4-{[(3aR/6aS)-octahydropyrrolo [3,4-c]pyrrol-2-yl]methyl}-2-methoxyphenyl)methyl]-N7-butyl-1H-pyrazolo[4,3-d]pyrimidine-5,7-diamine] | 62.2 nM | 1.29 nM
8 | COc1cc(CN2C[C@H]3CNC[C@H]3C2)ccc1Cn1ncc2nc(N)nc(NCC3CC(C4CC4)C3)c21 (stereo partly drawn) [Compound 113, 1-[(4-{[(3aR,6aS)-octahydro-pyrrolo[3,4-c]pyrrol-2-yl]methyl}-2-methoxyphenyl)methyl]-N7-[(3-cyclopropylcyclobutyl)methyl]-1H-pyrazolo[4,3-d]pyrimidine-5,7-diamine] | 22.2 nM | 43.2 nM

Further compounds by falling EC50 [1], results first:

Row | EC50 [1] | EC50 [2] | SMILES
9 | 354 nM | 22.4 nM | CCC[C@@H](CCO)Nc1nc(N)nc2cnn(Cc3cnc(CN4C[C@@H]5C[C@H]4CN5)cc3OC)c12 [Compound 134, (3S)-3-({5-amino-1-[(6-{[(1S,4S)-2,5-diazabicyclo[2.2.1]heptan-2-yl]methyl}-4-methoxypyridin-3-yl)methyl]-1H-pyrazolo[4,3-d]pyrimidin-7-yl}amino)hexan-1-ol]
10 | 173 nM | 138 nM | CCC[C@@H](CCO)Nc1nc(N)nc2cnn(Cc3ccc(C(=O)N4C[C@H]5CNC[C@H]5C4)cc3OC)c12 [Compound 120]
11 | 120 nM | 15.4 nM | CCCCNc1nc(N)nc2c(C)nn(Cc3ccc(C(=O)N4C[C@H]5C[C@@H]4CN5C)cc3OC)c12 [Compound 114, N7-butyl-1-({2-methoxy-4-[(1R,4R)-5-methyl-2,5-diazabicyclo-[2.2.1]heptane-2-carbonyl]phenyl}-methyl)-3-methyl-1H-pyrazolo[4,3-d]pyrimidine-5,7-diamine]
12 | 79.8 nM | 10.9 nM | CCCCNc1nc(N)nc2c(C)nn(Cc3ccc(C(=O)N4C[C@H]5CN(C)C[C@H]5C4)cc3OC)c12 [Compound 115, 1-({4-[(3aR,6aS)-5-methyl-octahydropyrrolo[3,4-c]pyrrole-2-carbonyl]-2-methoxyphenyl}methyl)-N7-butyl-3-methyl-1H-pyrazolo[4,3-d]pyrimidine-5,7-diamine]
13 | 7.2 nM | 0.7 nM | CCC[C@@H](CCO)Nc1nc(N)nc2cnn(Cc3ccc(CN4C[C@H]5CN(C)C[C@H]5C4)cc3OC)c12 [Compound 122, (3S)-3-({1-[(4-{[(3aR,6aS)-5-methyl-octahydropyrrolo[3,4-c]pyrrol-2-yl]methyl}-2-methoxyphenyl)methyl]-5-amino-1H-pyrazolo[4,3-d]pyrimidin-7-yl}amino)hexan-1-ol]
